Laboratory results as given in patent US20250114345A1, “COMPOUNDS AND COMPOSITIONS AS CBP/P300 DEGRADERS AND USES THEREOF” (Oncopia Therapeutics, Inc. d/b/a/ SK Life Science Labs, priority 2023, published 2025).

How the values were obtained:
[1] = target: T1, CBP (Homo sapiens, UniProt Q92793); assay: CBP degradation, HiBit technology in A549 CBP HiBit cells (24 h); type: cell-based; details: 24 hrs post treatment
T1 construct: host or cells: A549 CBP HiBit cells
Procedure, shortened: (§1)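 Cells: A549 HiBiT-tagged lines, 0.2×10^4/well, F-12K + 10% HI-FBS, equilibrated overnight. Tx: serial dilution of cpd (10 mM DMSO stock). Readout: HiBiT lytic reagent, 10 min RT shaking, luminescence → potency, Dmax.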

[2] = target: T2, p300 (Homo sapiens, UniProt Q09472); assay: P300 degradation, HiBit technology in A549 P300 HiBit cells (2 h); type: cell-based; details: 2 hrs post treatment; for Dmax: A549, A549 P300 HiBit cells; for DC50: A549 P300 HiBit cells
T2 construct: host or cells: A549 P300 HiBit cells
Procedure, shortened: as §1

T2 sequence (Q09472 whole entry): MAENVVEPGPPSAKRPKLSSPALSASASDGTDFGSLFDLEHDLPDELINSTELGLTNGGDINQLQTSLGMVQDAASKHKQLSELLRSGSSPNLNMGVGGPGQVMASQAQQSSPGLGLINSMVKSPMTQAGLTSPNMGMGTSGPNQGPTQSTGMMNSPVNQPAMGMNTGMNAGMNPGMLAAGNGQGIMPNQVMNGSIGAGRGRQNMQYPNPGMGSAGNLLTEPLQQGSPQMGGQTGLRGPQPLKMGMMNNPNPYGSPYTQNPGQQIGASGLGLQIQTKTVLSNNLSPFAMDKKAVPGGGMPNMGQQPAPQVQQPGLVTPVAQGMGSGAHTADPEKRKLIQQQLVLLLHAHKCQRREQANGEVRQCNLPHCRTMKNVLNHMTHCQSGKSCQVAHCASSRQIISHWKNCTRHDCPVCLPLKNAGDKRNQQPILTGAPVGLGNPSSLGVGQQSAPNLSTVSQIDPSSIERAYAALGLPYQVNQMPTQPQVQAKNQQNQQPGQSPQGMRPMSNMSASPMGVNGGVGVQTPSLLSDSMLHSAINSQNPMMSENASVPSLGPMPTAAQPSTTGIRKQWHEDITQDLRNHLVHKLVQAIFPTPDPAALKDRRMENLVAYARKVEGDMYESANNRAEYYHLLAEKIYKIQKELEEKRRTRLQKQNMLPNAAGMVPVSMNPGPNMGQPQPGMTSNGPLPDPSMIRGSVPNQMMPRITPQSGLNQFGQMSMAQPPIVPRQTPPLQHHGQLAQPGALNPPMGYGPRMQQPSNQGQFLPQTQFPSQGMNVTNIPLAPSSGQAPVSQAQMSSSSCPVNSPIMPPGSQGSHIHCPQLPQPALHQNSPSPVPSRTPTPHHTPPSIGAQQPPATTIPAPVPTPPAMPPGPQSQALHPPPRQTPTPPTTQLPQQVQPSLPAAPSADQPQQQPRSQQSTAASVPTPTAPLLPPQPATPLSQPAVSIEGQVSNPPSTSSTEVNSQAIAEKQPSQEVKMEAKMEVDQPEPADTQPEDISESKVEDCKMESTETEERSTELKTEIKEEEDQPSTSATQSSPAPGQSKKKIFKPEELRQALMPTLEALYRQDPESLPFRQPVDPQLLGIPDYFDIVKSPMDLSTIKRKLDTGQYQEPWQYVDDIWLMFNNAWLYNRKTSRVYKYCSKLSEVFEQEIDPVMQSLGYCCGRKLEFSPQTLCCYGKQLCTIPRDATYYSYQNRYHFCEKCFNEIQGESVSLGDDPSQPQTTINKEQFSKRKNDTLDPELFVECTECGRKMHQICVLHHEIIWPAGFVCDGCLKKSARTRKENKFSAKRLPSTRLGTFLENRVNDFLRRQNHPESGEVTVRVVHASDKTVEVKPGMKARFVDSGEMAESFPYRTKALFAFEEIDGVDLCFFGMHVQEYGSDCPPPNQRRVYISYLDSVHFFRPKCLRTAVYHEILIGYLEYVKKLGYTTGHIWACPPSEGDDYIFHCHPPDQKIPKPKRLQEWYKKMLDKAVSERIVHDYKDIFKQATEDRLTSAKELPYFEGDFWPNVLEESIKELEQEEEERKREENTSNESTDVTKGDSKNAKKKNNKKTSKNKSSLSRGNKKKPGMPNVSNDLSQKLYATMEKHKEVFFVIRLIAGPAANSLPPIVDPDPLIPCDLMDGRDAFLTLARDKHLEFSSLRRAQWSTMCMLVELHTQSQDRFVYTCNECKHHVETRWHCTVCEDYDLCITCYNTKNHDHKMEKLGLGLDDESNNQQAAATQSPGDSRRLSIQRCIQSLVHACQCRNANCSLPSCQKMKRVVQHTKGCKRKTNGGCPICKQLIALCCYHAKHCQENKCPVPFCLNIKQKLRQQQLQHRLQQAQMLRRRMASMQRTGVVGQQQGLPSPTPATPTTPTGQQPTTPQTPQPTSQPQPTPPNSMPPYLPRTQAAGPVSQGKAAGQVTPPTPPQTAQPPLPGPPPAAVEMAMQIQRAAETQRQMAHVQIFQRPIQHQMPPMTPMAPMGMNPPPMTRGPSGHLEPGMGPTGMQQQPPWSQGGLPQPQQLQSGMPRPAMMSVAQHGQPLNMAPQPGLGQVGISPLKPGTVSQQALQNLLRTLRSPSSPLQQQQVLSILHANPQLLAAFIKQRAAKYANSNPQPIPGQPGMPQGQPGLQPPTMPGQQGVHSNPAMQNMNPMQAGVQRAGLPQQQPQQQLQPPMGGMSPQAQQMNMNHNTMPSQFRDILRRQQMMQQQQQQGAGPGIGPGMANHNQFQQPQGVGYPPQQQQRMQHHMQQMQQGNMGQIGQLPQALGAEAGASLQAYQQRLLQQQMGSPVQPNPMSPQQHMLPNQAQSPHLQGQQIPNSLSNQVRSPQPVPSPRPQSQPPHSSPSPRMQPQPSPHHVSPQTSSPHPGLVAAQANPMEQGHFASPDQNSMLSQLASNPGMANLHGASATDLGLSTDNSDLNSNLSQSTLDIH
T1 sequence (Q92793 whole entry): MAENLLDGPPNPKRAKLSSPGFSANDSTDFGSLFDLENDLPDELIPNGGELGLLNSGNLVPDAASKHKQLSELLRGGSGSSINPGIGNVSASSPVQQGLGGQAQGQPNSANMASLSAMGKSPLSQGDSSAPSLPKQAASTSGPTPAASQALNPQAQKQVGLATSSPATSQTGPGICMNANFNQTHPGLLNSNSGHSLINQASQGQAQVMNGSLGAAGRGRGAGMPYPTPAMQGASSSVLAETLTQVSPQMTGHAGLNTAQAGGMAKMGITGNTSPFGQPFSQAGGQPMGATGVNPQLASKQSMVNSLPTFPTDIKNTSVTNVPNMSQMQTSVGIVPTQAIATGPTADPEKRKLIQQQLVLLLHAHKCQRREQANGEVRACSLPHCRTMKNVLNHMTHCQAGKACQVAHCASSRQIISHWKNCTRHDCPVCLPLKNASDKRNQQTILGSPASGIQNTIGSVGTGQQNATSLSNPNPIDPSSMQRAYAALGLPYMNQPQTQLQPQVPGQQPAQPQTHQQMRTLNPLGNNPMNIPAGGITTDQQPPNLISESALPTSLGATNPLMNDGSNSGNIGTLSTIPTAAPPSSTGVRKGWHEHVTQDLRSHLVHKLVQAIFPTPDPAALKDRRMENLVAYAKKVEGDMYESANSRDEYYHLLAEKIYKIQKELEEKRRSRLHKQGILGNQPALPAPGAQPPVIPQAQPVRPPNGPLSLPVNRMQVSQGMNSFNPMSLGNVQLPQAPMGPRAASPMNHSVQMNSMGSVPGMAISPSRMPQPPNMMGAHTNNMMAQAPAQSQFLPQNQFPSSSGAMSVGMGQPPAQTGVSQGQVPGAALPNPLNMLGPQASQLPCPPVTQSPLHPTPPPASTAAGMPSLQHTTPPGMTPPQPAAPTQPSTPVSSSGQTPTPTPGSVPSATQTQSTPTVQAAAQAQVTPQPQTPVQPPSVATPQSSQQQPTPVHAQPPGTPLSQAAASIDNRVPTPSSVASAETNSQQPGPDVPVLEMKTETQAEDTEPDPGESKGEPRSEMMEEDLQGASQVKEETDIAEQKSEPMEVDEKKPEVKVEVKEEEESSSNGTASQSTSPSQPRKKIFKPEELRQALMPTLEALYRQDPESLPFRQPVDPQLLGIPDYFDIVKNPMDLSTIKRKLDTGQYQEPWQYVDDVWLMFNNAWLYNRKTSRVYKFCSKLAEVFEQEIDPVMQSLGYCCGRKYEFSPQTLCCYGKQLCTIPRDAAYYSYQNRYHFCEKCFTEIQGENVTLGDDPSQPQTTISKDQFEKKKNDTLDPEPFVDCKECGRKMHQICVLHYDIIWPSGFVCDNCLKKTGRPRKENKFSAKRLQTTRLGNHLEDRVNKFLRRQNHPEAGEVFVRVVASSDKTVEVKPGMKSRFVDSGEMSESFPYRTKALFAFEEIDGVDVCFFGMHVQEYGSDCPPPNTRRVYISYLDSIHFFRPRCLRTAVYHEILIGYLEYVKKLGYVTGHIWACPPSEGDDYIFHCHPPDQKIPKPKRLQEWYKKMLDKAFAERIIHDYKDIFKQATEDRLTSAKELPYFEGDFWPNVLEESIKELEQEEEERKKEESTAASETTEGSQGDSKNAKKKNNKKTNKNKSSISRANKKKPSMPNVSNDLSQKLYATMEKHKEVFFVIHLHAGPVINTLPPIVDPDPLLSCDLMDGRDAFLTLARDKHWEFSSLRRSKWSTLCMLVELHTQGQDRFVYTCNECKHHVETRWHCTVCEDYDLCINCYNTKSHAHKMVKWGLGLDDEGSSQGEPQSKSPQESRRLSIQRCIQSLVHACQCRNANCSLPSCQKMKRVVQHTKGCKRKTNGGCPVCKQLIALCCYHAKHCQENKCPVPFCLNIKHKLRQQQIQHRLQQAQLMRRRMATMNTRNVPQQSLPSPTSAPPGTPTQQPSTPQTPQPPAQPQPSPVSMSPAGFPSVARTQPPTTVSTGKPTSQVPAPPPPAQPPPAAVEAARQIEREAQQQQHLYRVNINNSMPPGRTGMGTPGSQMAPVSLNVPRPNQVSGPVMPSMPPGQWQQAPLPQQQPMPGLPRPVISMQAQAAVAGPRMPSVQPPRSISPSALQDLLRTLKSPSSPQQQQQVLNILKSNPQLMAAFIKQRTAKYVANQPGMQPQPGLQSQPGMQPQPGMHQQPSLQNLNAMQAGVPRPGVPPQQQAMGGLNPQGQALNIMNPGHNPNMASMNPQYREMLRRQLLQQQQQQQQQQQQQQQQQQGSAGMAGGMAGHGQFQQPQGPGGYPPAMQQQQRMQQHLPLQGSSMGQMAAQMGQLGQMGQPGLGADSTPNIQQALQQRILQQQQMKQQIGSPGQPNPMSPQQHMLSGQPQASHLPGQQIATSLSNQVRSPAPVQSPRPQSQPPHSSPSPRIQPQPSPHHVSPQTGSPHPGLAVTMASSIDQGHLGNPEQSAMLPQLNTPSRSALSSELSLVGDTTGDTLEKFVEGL

SMILES: CC(C)c1cc(-c2cccc3cc(-c4ccc(C(=O)NCC#Cc5ccc6occ(C78CC(C7)C(=O)NC8=O)c6c5)nc4)ncc23)cc2c1n(C)c(=O)n2C [Example A212, N-(3-(3-(2,4-dioxo-3-azabicyclo[3.1.1]heptan-1-yl)benzofuran-5-yl)prop-2-yn-1-yl)-5-(8-(7-isopropyl-1,3-dimethyl-2-oxo-2,3-dihydro-1H-benzo[d]imidazol-5-yl)isoquinolin-3-yl)picolinamide]
- DC50 [1]: > 1000 nM
- Dmax [1]: < 20%
- Dmax [2]: > 80%
- DC50 [2]: 1 to 9.9 nM

SMILES: Cn1c(=O)n(C)c2cc(-c3cccc4cc(-c5ccc(C(=O)NCC#Cc6cc7c(C8CCC(=O)NC8=O)nccc7o6)nc5)ncc34)ccc21 (stereo not shown) [Example A213, 5-(8-(1,3-dimethyl-2-oxo-2,3-dihydro-1H-benzo[d]imidazol-5-yl)isoquinolin-3-yl)-N-(3-(4-(2,6-dioxo-piperidin-3-yl)furo[3,2-c]pyridin-2-yl)prop-2-yn-1-yl)picolinamide]
- DC50 [1]: > 1000 nM
- Dmax [1]: < 20%
- Dmax [2]: > 80%
- DC50 [2]: < 1 nM

SMILES: CC(C)c1cc(-c2cccc3cc(-c4ccc(C(=O)NCC#Cc5cc6cccc(C7CCC(=O)NC7=O)c6o5)nc4)ncc23)cc2c1n(C)c(=O)n2C (stereo not shown) [Example A216, N-(3-(7-(2,6-dioxo-piperidin-3-yl)benzofuran-2-yl)prop-2-yn-1-yl)-5-(8-(7-isopropyl-1,3-dimethyl-2-oxo-2,3-dihydro-1H-benzo [d]imidazol-5-yl)isoquinolin-3-yl)picolinamide]
- DC50 [1]: > 1000 nM
- Dmax [1]: < 20%
- Dmax [2]: > 80%
- DC50 [2]: 1 to 9.9 nM

SMILES: Cc1cc(N2CCN(C)c3nc(-c4ccc(C(=O)NCC#Cc5cc6c(C7CCC(=O)NC7=O)cccc6o5)nc4)ncc32)cc2c1n(C)c(=O)n2C (stereo not shown) [Example A219, N-(3-(4-(2,6-dioxo-piperidin-3-yl)benzofuran-2-yl)prop-2-yn-1-yl)-5-(8-methyl-5-(1,3,7-trimethyl-2-oxo-2,3-dihydro-1H-benzo[d]imidazol-5-yl)-5,6,7,8-tetrahydro-pteridin-2-yl)picolinamide]
- DC50 [1]: 100 to 999 nM
- Dmax [1]: < 20%
- Dmax [2]: > 80%
- DC50 [2]: < 1 nM

SMILES: CC(C)c1cc(-c2cccc3cc(-c4ccc(C(=O)NCC#Cc5cnc6c(c5)c(C5CCC(=O)NC5=O)nn6C)nc4)ncc23)cc2c1n(C)c(=O)n2C (stereo not shown) [Example A221, N-(3-(3-(2,6-dioxo-piperidin-3-yl)-1-methyl-1H-pyrazolo [3,4-b]pyridin-5-yl)prop-2-yn-1-yl)-5-(8-(7-isopropyl-1,3-dimethyl-2-oxo-2,3-dihydro-1H-benzo[d]imidazol-5-yl)isoquinolin-3-yl)picolinamide]
- DC50 [1]: > 1000 nM
- Dmax [1]: < 20%
- Dmax [2]: > 80%
- DC50 [2]: 1 to 9.9 nM

SMILES: Cn1c(=O)n(C)c2c(N3CCOCC3)nc(-c3cccc4cc(-c5ccc(C(=O)NCC#Cc6cc7c(C8CCC(=O)NC8=O)cccc7o6)nc5)ncc34)cc21 (stereo not shown) [Example A223, 5-(8-(1,3-dimethyl-4-morpholino-2-oxo-2,3-dihydro-1H-imidazo[4,5-c]pyridin-6-yl)isoquinolin-3-yl)-N-(3-(4-(2,6-dioxopiperidin-3-yl)benzofuran-2-yl)prop-2-yn-1-yl)picolinamide]
- DC50 [1]: 100 to 999 nM
- Dmax [1]: < 20%
- Dmax [2]: > 80%
- DC50 [2]: < 1 nM

SMILES: Cn1c(=O)n(C)c2cc(N3CCCc4nc(-c5ccc(C(=O)NCC#Cc6cc7c(C8CCC(=O)NC8=O)cccc7o6)nc5)ncc43)ccc21 (stereo not shown) [Example A226, 5-(5-(1,3-dimethyl-2-oxo-2,3-dihydro-1H-benzo[d]imidazol-5-yl)-5,6,7,8-tetrahydropyrido [3,2-d]pyrimidin-2-yl)-N-(3-(4-(2,6-dioxo-piperidin-3-yl)benzofuran-2-yl)prop-2-yn-1-yl)picolinamide]
- DC50 [1]: 100 to 999 nM
- Dmax [1]: < 20%
- Dmax [2]: > 80%
- DC50 [2]: < 1 nM

SMILES: CC(C)c1cc(-c2cccc3cc(-c4ccc(C(=O)NCC#Cc5cc6c(C7CCC(=O)NC7=O)coc6cc5F)nc4)ncc23)cc2c1n(C)c(=O)n2C (stereo not shown) [Example A234, N-(3-(3-(2,6-dioxo-piperidin-3-yl)-6-fluorobenzofuran-5-yl)prop-2-yn-1-yl)-5-(8-(7-isopropyl-1,3-dimethyl-2-oxo-2,3-dihydro-1H-benzo [d]imidazol-5-yl)isoquinolin-3-yl)picolinamide]
- DC50 [1]: > 1000 nM
- Dmax [1]: < 20%
- Dmax [2]: > 80%
- DC50 [2]: 1 to 9.9 nM

SMILES: CC(C)c1cc(N2CCCc3nc(-c4ccc(C(=O)NCC#Cc5cc6c(C7CCC(=O)NC7=O)cccc6o5)nc4)ncc32)cc2c1n(C)c(=O)n2C (stereo not shown) [Example A237, N-(3-(4-(2,6-dioxo-piperidin-3-yl)benzofuran-2-yl)prop-2-yn-1-yl)-5-(5-(7-isopropyl-1,3-dimethyl-2-oxo-2,3-dihydro-1H-benzo [d]imidazol-5-yl)-5,6,7,8-tetrahydro-pyrido[3,2-d]pyrimidin-2-yl)picolinamide]
- DC50 [1]: 100 to 999 nM
- Dmax [1]: < 20%
- Dmax [2]: > 80%
- DC50 [2]: < 1 nM

SMILES: Cc1cc(-c2cc3c(cn2)N(c2cc(C(C)C)c4c(c2)n(C)c(=O)n4C)CCC3)cnc1C(=O)NCC#Cc1ccn2ncc(C3CCC(=O)NC3=O)c2c1 (stereo not shown) [Example A238, N-(3-(3-(2,6-dioxo-piperidin-3-yl)pyrazolo[1,5-a]pyridin-5-yl)prop-2-yn-1-yl)-5-(1-(7-isopropyl-1,3-dimethyl-2-oxo-2,3-dihydro-1H-benzo[d]imidazol-5-yl)-1,2,3,4-tetrahydro-1,7-naphthyridin-6-yl)-3-methylpicolinamide]
- DC50 [1]: 1 to 9.9 nM
- Dmax [1]: 40 to 59%
- Dmax [2]: > 80%
- DC50 [2]: < 1 nM

SMILES: Cn1nc(C2CCC(=O)NC2=O)c2cc(C#CCNC(=O)c3ccc(-c4ncc5c(n4)OCCN5c4ccc5c(c4)n(C)c(=O)n5C)cn3)ccc21 (stereo not shown) [Example A243, 5-(5-(1,3-dimethyl-2-oxo-2,3-dihydro-1H-benzo[d]imidazol-5-yl)-6,7-dihydro-5H-pyrimido[4,5-b][1,4]oxazin-2-yl)-N-(3-(3-(2,6-dioxopiperidin-3-yl)-1-methyl-1H-indazol-5-yl)prop-2-yn-1-yl)picolinamide]
- DC50 [1]: > 1000 nM
- Dmax [1]: < 20%
- Dmax [2]: > 80%
- DC50 [2]: 1 to 9.9 nM

SMILES: Cn1c(=O)n(C)c2cc(N3CCOc4nc(-c5ccc(C(=O)NCC#Cc6cc7cccc(C8CCC(=O)NC8=O)c7o6)nc5)ncc43)ccc21 (stereo not shown) [Example A247, 5-(5-(1,3-dimethyl-2-oxo-2,3-dihydro-1H-benzo[d]imidazol-5-yl)-6,7-dihydro-5H-pyrimido[4,5-b][1,4]oxazin-2-yl)-N-(3-(7-(2,6-dioxopiperidin-3-yl)benzofuran-2-yl)prop-2-yn-1-yl) picolinamide]
- DC50 [1]: > 1000 nM
- Dmax [1]: < 20%
- Dmax [2]: 20 to 39%
- DC50 [2]: 10 to 99 nM

SMILES: Cc1oc2ccc(C#CCNC(=O)c3ccc(-c4cc5cccc(-c6cc(C(C)C)c7c(c6)n(C)c(=O)n7C)c5cn4)cn3)cc2c1C1CCC(=O)NC1=O (stereo not shown) [Example A248, N-(3-(3-(2,6-dioxo-piperidin-3-yl)-2-methylbenzofuran-5-yl)prop-2-yn-1-yl)-5-(8-(7-isopropyl-1,3-dimethyl-2-oxo-2,3-dihydro-1H-benzo [d]imidazol-5-yl)isoquinolin-3-yl) picolinamide]
- DC50 [1]: > 1000 nM
- Dmax [1]: < 20%
- Dmax [2]: > 80%
- DC50 [2]: 10 to 99 nM
